Reference: ChEMBL document CHEMBL1833852, “Design, synthesis, and X-ray crystallographic analysis of a novel class of HIV-1 protease inhibitors” (J Med Chem, 2011)
Activity calls are given as the source filed them. The calls are words filed in the database; no cut-off is given here.

What was measured:
Protease = Protease (Human immunodeficiency virus 1, UniProt Q9YQ12); assay: (§1) Inhibition of Human immunodeficiency virus 1 protease activity after 60 mins by HPLC analysis
[1] = target: Protease (Human immunodeficiency virus 1) (UniProt Q9YQ12); assay: as §1
Protease (Human immunodeficiency virus 1), sequence (Q9YQ12 as listed by the source): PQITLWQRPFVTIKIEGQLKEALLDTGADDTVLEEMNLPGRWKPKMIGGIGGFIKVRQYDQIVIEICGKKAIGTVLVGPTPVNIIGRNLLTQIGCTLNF

Protease, sequence (Q9YQ12 whole entry): as the sequence (Q9YQ12 as listed by the source) above

Row | Structure (SMILES) | Ki (Protease) [nM] | inhibition [1]
1 | C=CCOC(=O)N[C@@H](Cc1ccccc1)[C@H](O)CN1C[C@@H](C)Cc2ccccc2S1(=O)=O | 27 | 
2 | CC(C)(C)OC(=O)N[C@@H](Cc1ccccc1)[C@H](O)CN1CCCc2ccccc2S1(=O)=O | 470 | 
3 | CCOC(=O)NC(Cc1ccccc1)C(O)CN1C[C@@H](C)Cc2ccccc2S1(=O)=O (single isomer, unassigned) | 34 | 
4 | C[C@H]1Cc2cc(F)ccc2S(=O)(=O)N(CC(O)C(Cc2ccccc2)NC(=O)[C@@H]2CN(c3ccccc3)C(=O)O2)C1 (single isomer, unassigned) | 30 | 
5 | C[C@H]1Cc2cc(C(F)(F)F)ccc2S(=O)(=O)N(C[C@@H](O)[C@H](Cc2ccccc2)NC(=O)OC(C)(C)C)C1 | 186 | 
6 | C[C@H]1Cc2ccccc2S(=O)(=O)N(CC(O)C(Cc2ccccc2)NC(=O)Oc2ccccc2)C1 (single isomer, unassigned) | 350 | 

The next lines start with the values.

Row | Ki (Protease) [nM] | inhibition [1] | Structure (SMILES)
7 | 1000 |  | C[C@@H]1Cc2ccccc2S(=O)(=O)N(CC(O)C(Cc2ccccc2)NC(=O)OC(C)(C)C)C1 (single isomer, unassigned)
8 |  | inactive | O=C1N[C@@H](Cc2ccccc2)[C@@H](CN2CCCc3ccccc3S2(=O)=O)O1
9 | 19 |  | COc1ccc2c(c1)C[C@H](C)CN(C[C@@H](O)[C@H](Cc1ccccc1)NC(=O)OC(C)(C)C)S2(=O)=O
10 | 29 |  | C[C@H]1Cc2ccccc2S(=O)(=O)N(CC(O)C(Cc2ccccc2)NC(=O)OC(C)(C)C)C1 (single isomer, unassigned)
11 | 100 |  | C[C@H]1Cc2ccc(C(F)(F)F)cc2S(=O)(=O)N(C[C@@H](O)[C@H](Cc2ccccc2)NC(=O)OC(C)(C)C)C1
